Laboratory results published in publication PMC8781960, “Structural Basis of 2-Phenylamino-4-phenoxyquinoline Derivatives as Potent HIV-1 Non-Nucleoside Reverse Transcriptase Inhibitors” (Molecules, 2022).

Experiments:
[1] = test system: MOLT-3 (acute lymphoblastic leukemia); assay: In vitro cytotoxicity (XTT); settings: Homo sapiens, MOLT-3, 48 h, read-out: IC50 MOLT-3
[2] = test system: H69AR (lung cancer, multidrug resistant); assay: In vitro cytotoxicity (MTT); type: cell-based, human; settings: Homo sapiens, H69AR; 48 h; mean ± standard error
[3] = test system: MRC-5 (normal embryonic lung cell); assay: In vitro cytotoxicity (MTT), normal cell line; settings: Homo sapiens, MRC5, 48 h, read-out: IC50 MRC-5
Method in brief: (§1)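 Cells exposed to samples at various concentrations for 48 h; viability by MTT reduction, formazan dissolved in DMSO. Absorbance read at 550 nm with 650 nm reference.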

A549 (lung carcinoma) = assay: In vitro cytotoxicity (MTT); settings: Homo sapiens, A549, 48 h, read-out: IC50 A549
Method in brief: as §1

[4] = test system: MDA-MB-231 (hormone-independent breast cancer); assay: In vitro cytotoxicity (MTT); settings: Homo sapiens, MDA-MB-231, 48 h, read-out: IC50 MDA-MB-231
Method in brief: as §1

HepG2 (hepatocarcinoma) = assay: In vitro cytotoxicity (MTT); settings: Homo sapiens, HepG2, 48 h, read-out: IC50 HepG2
Method in brief: as §1

[5] = test system: HeLA (cervical carcinoma); assay: In vitro cytotoxicity (MTT); settings: Homo sapiens, HeLa, 48 h, read-out: IC50 HeLA
Method in brief: as §1

[6] = test system: HuCCA-1 (cholangiocarcinoma); assay: In vitro cytotoxicity (MTT); settings: Homo sapiens, HuCC-A1, 48 h, read-out: IC50 HuCCA-1
Method in brief: as §1

S102 (Thai liver cancer) = assay: In vitro cytotoxicity (MTT); settings: Homo sapiens, 48 h, read-out: IC50 S102
Method in brief: as §1

[7] = test system: T47-D (hormone-dependent breast cancer); assay: In vitro cytotoxicity (MTT); settings: Homo sapiens, T47D, 48 h, read-out: IC50 T47-D
Method in brief: as §1

HL-60 (promyeloblast) = assay: In vitro cytotoxicity (MTT); settings: Homo sapiens, HL-60, 48 h, read-out: IC50 HL-60
Method in brief: as §1

HIV-1 RT = biological target: T1, HIV-1 RT (Human immunodeficiency virus type 1 group M subtype B, UniProt P03366); design: method as in PMID 31698495; settings: 1 µM; previously reported values for 5a–5d; cited from earlier work
T1 construct: The reaction mixture consisted of template/primer complex, 2′-deoxy-nucleotide-5′-triphosphates (dNTPs), and RT enzyme in lysis buffer; purchased Roche Applied Science, Mannheim, Germany

In the case of `Cc1cc(C=O)cc(C)c1Oc1cc(Nc2ccc(C#N)cc2)nc2ccccc12` [Compound 5b, 4-(2′,6′-Dimethyl-4′-formylphenoxy)-2-(4″-cyanophenyl)-aminoquinoline], the IC50 [1] is reported as 11.8 ± 1.6 µM, the IC50 [2] is reported as 27.6 ± 3.4 µM and the IC50 [3] is reported as 69.8 ± 4.3 µM. It also gave a melting point of 291.3 to 292.2 °C, an IC50 (A549 (lung carcinoma)) of 51.2 ± 3 µM and an IC50 [4] of 15.9 ± 0.4 µM. The IC50 (HepG2 (hepatocarcinoma)) was 65.9 ± 6.1 µM, the IC50 [5] was 3.9 ± 0.6 µM and the IC50 [6] was 29.4 ± 2 µM. The IC50 (S102 (Thai liver cancer)) was 74 ± 5.3 µM, the IC50 [7] was 22.9 ± 0.9 µM and the IC50 (HL-60 (promyeloblast)) was 4.5 ± 0.2 µM. The “Inhibitory activities (%) against HIV-1 RT” value (HIV-1 RT) was 34.0 ± 2.5%.
